# ChEMBL document CHEMBL5661943, “ASAP - In vitro antiviral effect” (2024)
# How the values were obtained:
# [1] = test system: dengue virus type 2; assay: Functional CPE-based assay to measure dose dependent changes in antiviral-drug inhibitory efficacy against Dengue virus type 2 New Guinea C in Huh7 cells. Cells are treated with antiviral candidates that are serially diluted. EC50 is reported via analysis of MTT/MTS assay as a readout of CPE. The assay has been performed by National Institute of Allergy and Infectious Diseases.; assay type: organism-based, Homo sapiens; details: Huh-7
# [2] = test system: Zika virus; assay: (§1) Functional immunofluorescence assay to measure dose dependent changes in antiviral-drug inhibitory efficacy against Zika virus PRVABC59 in Vero E6/TMPRSS2 cells. Cells are treated with antiviral candidates that are serially diluted, following infection, cells are fixed. EC50 is reported via analysis of immunofluorescence staining. The assay has been performed by Icahn School of Medicine at Mount Sinai.; assay type: organism-based, Chlorocebus sabaeus
# [3] = test system: dengue virus type 2; assay: as §1, with “Dengue” for “Zika”, “type 2 Thailand/16681/84” for “PRVABC59”, “cells (cotreated with P-gp inhibitor, Elacridar).” for “cells.”; assay type: organism-based, Chlorocebus sabaeus, VeroE6/TMPRSS2; details: for EC90: Baseline response 0 %, Maximum response 100 %, P-gp concentration 2 uM, P-gp inhibitor Elacidar
# [4] = test system: dengue virus type 2; assay: as §1, with “Dengue” for “Zika”, “type 2 Thailand/16681/84” for “PRVABC59”; assay type: organism-based, Chlorocebus sabaeus
# [5] = test system: dengue virus type 2; assay: Functional assay to measure dose dependent changes in antiviral-drug inhibitory efficacy against Dengue virus type 2 New Guinea C in Vero E6 miRFP670 cells (cotreated with P-gp inhibitor, CP100356). Cells are treated with antiviral candidates that are serially diluted, following infection, cells are fixed. EC50 is reported via analysis of fluorescence intensity using high-content imager. The …; assay type: organism-based, Chlorocebus sabaeus, Vero C1008; details: Dengue virus
# [6] = test system: Zika virus; assay: EC50 is reported via analysis of immunofluorescence staining. The assay has been performed by Icahn School of Medicine at Mount Sinai.; assay type: functional, organism-based, Chlorocebus sabaeus, VeroE6/TMPRSS2; details: for EC90: Baseline response 0 %, Maximum response 100 %, P-gp concentration 2 uM, P-gp inhibitor Elacidar
structure (smiles),measurement,setting,value
CCCCCC(=O)N[C@H](C(=O)NCc1cccc(CN)c1)c1ccc(OCc2ccccc2)cc1,EC50,[1],> 18 µM
CCCCCC(=O)N[C@H](C(=O)Nc1ccc2[nH]ncc2c1)c1ccc(OCc2ccccc2)cc1,EC50,[1],6.2 µM
CCCCCC(=O)N[C@H](C(=O)Nc1ccc(C(N)=O)cc1)c1ccc(OCc2ccccc2)cc1,EC50,[1],> 32 µM
NCc1ccc(-c2ncc(OCC3CCNCC3)nc2-c2ccc(C3CCOCC3)cc2)cc1,EC50,[1],> 32 µM
CCCCCC(=O)N[C@H](C(=O)N1CCCCC1)c1ccc(OCc2ccccc2)cc1,EC50,[1],> 19 µM
O=C(Nc1cc(Cl)cc(C(=O)Nc2ccc3c(c2)CNC3)c1)OCc1ccccc1,EC50,[2]; VeroE6/TMPRSS2,> 50 µM
same,EC90,"[2]; VeroE6/TMPRSS2, Maximum measured 887.776 %, Minimum measured 72.98 %",> 50 µM
same,EC90,"[3]; Hill slope -0.262, Maximum measured 88.903 %, Minimum measured 51.493 %, R squared 0.387",> 5.56 µM
same,EC50,"[3]; Dengue virus, VeroE6/TMPRSS2",> 3.33 µM
same,EC90,"[3]; Dengue virus, VeroE6/TMPRSS2, Hill slope 0.742, Maximum measured 298.531 %, Minimum measured 53.657 %, R squared 0.04",> 3.33 µM
same,EC50,[3]; veroe6/tmprss2,> 5.56 µM
same,EC50,[4]; VeroE6/TMPRSS2,610 nM
same,EC90,"[4]; VeroE6/TMPRSS2, Baseline response 0 %, Hill slope -0.704, Maximum measured 114.373 %, Maximum response 100 %, Minimum measured 21.903 %, R squared 0.634",> 5.56 µM
same,EC50,[5]; Vero C1008,> 50 µM
same,EC90,"[5]; Vero C1008, Maximum measured 108.699 %, Minimum measured 64.199 %, P-gp concentration 500 nM, P-gp inhibitor CP100356",> 50 µM
same,EC90,"[6]; Hill slope -10.107, Maximum measured 106.671 %, Minimum measured 12.006 %, R squared 0.759",> 5.56 µM
same,EC50,"[6]; Zika virus, VeroE6/TMPRSS2",> 3.33 µM
same,EC90,"[6]; Zika virus, VeroE6/TMPRSS2, Hill slope 0.615, Maximum measured 150.152 %, Minimum measured 64.245 %, R squared 0.072",> 3.33 µM
same,EC50,[6]; veroe6/tmprss2,4.56 µM
NCc1cccc(NC(=O)C[C@@H](NC(=O)OCc2ccccc2)c2ccc(OCc3ccccc3)cc2)c1,EC50,[1],> 6.1 µM
